Source: patent publication US20240344145A1, “PHARMACOGENOMICS SCORE TO MAKE DECISIONS ON THERAPY AUGMENTATION IN AML” (University of Florida Research Foundation, Incorporated, priority 2021, published 2024)

Columns and labels:
[1] = tested on: AML patients (1 month to 29.9 years old); conditions: previously reported, cited from earlier work
[2] = tested on: AML patients (1 month to 29.9 years old); assay: COG-AAML0531 clinical trial, ADE vs ADE+GO arms: MRD1, EFS and OS overall and by ACS10 score and CD33 SNP; type: in vivo, human; conditions: low ACS10 score
Description: AAML0531 clinical trial enrolled previously untreated AML patients (1 month to 29.9 years old) who were randomized to receive ADE (cytarabine 100 mg/m^2/dose twice per day for […] alongside with daunorubicin and etoposide-equivalent to LDAC arm of St. Jude AML02) with or without the addition of 1 dose in induction 1 and 1 dose in intensification of CD33-targeting drug gemtuzumab ozogamicin (ADE+GO arm). Genotype data on 10 SNPs that were part of the ACS10 score in the discovery cohort was generated in 931 patients (n=465 in standard ADE arm and n=466 in ADE+GO arm). […] In subsequent analysis to check whether ACS10 score has impact on the GO addition, the evaluation of patients from the ADE+GO arm was also considered.
The association of MRD1, EFS, and OS was evaluated with ACS10 scores in the AML02 discovery cohort and the AAML0531 validation cohort. The Kaplan-Meier method was used to estimate the EFS and OS probabilities for well-defined groups of patients. Cox regression models were used to associate ACS10 with EFS and OS and used logistic regression models to associate ACS10 with MRD1. The Wilcoxon rank-sum test and Kruskal-Wallis test were used to compare medians of numeric variables across groups. Chi-square tests and Fisher's exact test were used to evaluate the association among pairs of categorical variables. All p-values are two-sided. […]

gemtuzumab ozogamicin [GO]
benefit from addition of GO to standard chemotherapy ([1]; CD33 rs12459419 CT/TT genotypes, ADE+GO versus ADE): derived no benefit from addition of GO
survival (EFS and DFS) with addition of GO to standard chemotherapy ([1]; CD33 rs12459419 homozygous CC genotype): significantly better survival
benefit from adding GO (EFS and OS) ([2]; CD33 rs12459419 CC genotype): benefit from adding GO
benefit from addition of GO (EFS and OS) ([2]; CT/TT genotype for CD33 rs12459419): do not benefit from addition of GO
